# Laboratory results from patent US11419865B2, “Method for inducing a sustained immune response” (Cytocom Inc., priority 2016, dated 2022).
# Columns and labels:
# [1] = tested on: AIDS; assay: 3-month double-blind then open trial in 38 AIDS patients (Kaposi's sarcoma / opportunistic infection); type: in vivo, human
# [2] = tested on: autistic children, lymphocyte subsets; assay: behavioral and immunological assessment in autism during double-blind naltrexone treatment; type: in vivo, human
# Description: Opioid-immune interactions in autism: behavioral and immunological assessment during a double-blind treatment with naltrexone.
# Changes in natural killer cells and activity were inversely related to plasma beta-endorphin levels.
# [3] = tested on: Hepatitis C; assay: Hepatitis C case reports; type: in vivo, human
# [4] = tested on: children with moderate to severe Crohn's disease; assay: pilot clinical trial in children with moderate to severe Crohn's disease; type: in vivo, human; parameters: patients in remission (PCDAI score≤10): unit not given here
# Description: A pilot clinical trial was conducted in children with moderate to severe Crohn's disease. Fourteen subjects with a mean age of 12.3 years (range, 8 to 17 y) were enrolled. […]. Safety and toxicity were monitored by physical examinations and blood chemistries. Clinical activity was assessed by the Pediatric Crohn's Disease Activity Index (PCDAI) and Quality of life was monitored by the Impact III survey. […] […].
# [5] = tested on: patients with active Crohn's disease; assay: 12-week study of 4.5 mg naltrexone/day in active Crohn's disease (17 patients); type: in vivo, human
# Description: . Infliximab was not allowed for a minimum of 8 weeks prior to study initiation. Other therapy for Crohn's disease that was at a stable dose for 4 weeks prior to enrollment was continued at the same doses. Patients completed the inflammatory bowel disease questionnaire (IBDQ) and the short-form (SF-36) quality of life surveys and CDAI scores were assessed pretreatment, every 4 weeks on therapy and 4 weeks after completion of the study drug. Drug was administered by mouth each evening for a 12-week period. RESULTS: Seventeen patients with a mean CDAI score of 356+/−27 were enrolled.
# [6] = tested on: subjects with active Crohn's disease; assay: randomized placebo-controlled study, forty subjects with active Crohn's disease; type: in vivo, human
# Description: Forty subjects with active Crohn's disease were enrolled in the study. […] Providers and patients were masked to treatment assignment. The primary outcome was the proportion of subjects in each arm with a 70-point decline in Crohn's Disease Activity Index score (CDAI). The secondary outcome included mucosal healing based upon colonoscopy appearance and histology. […].
# [7] = tested on: women with fibromyalgia; assay: randomized, double blind, placebo-controlled crossover study, 31 women with fibromyalgia; type: in vivo, human; details: 4.5 mg daily
# Description: Thirty-one women with fibromyalgia participated in the randomized, double blind, placebo-controlled, and counterbalanced, crossover study. […]. An intensive longitudinal design was used to measure daily levels of pain. […]; P=0.016). […]. […] […]; P=0.016). […].
# [8] = tested on: Hashimoto's patients; assay: Hashimoto's thyroiditis case reports
# Description: Patient was taking L-thyroxine and pain medications and 75 mg Zoloft.
# Patients was taking Synthroid 150 mcg, Compounded T3 25 mcg, Progesterone 150 mg, Plus lots of supplements like Magnesium, D3, Methyl B12, Methyl folate, Selenium, E, Amino Restore, CLA, NAC, DE, Adaptacin.
# [9] = tested on: Shingles; assay: shingles case report; type: in vivo, human; details: 4.5 mg nightly from 2013; before 8 major outbreaks over 18 months
# Description: A person diagnosed with Shingles in 2010 over 18 months had 8 major outbreaks, and was treated with acyclovir, and valacyclovir, as the outbreaks continued they prescribed Lidocaine patches and pain medications. […]
# [10] = tested on: myasthenia gravis patient; assay: myasthenia gravis case report; type: in vivo, human; details: drug interrupted
# [11] = tested on: psoriatic arthritis patient; assay: psoriatic arthritis case report; type: in vivo, human
# [12] = tested on: Rheumatoid Arthritis patients; assay: rheumatoid arthritis case reports; type: in vivo, human
# Description: A person diagnosed with Rheumatoid Arthritis in 2006 and was being treated with methotrexate and plaquenil but patients continued with pain and fatigue. […]
# A person diagnosed 5 years ago with RA was treated with Methotrexate 25 mg per week and Remicade 300 U every 6 weeks, the fatigue and pain continued, along with the inflammation and general weakness. Sleep disturbed nightly due to pain in my shoulders and hips. Patient felt their life was not acceptable and none of the immunosuppression drugs were helping. […] Within two weeks patient stopped even ibuprophen. Rheumatoid factor has gone from 127 to 66 in 4 months and has stayed stable. […] Occasionally patient has pain but it is easily controlled with a normal dosage of ibuprophen.
# A person, diagnosed with RA in 1999 stayed very active until 2005 on a combination of Methotrexate and Prednisone but was have difficulty maintaining their business due to fatigue and severe joint pain with deformity of their hands and elbows. Patient was told to increase their does and start a second immunomodulating drug. Patient no longer wanted to continue with immunosuppression drug or steroids due to the side effects. […]; they have no pain that can't be handled with aspirin.
# [13] = tested on: systemic lupus patients; assay: systemic lupus case reports; type: in vivo, human
# Description: […]. […] […].
# Psoriasis mostly resolved.
# [14] = tested on: cancer patients; details: cited from earlier work
# [15] = 0.1 mg/kg orally, end of the study
compound,measurement,setting,value
"O=C1CC[C@@]2(O)[C@H]3Cc4ccc(O)c5c4[C@@]2(CCN3CC2CC2)[C@H]1O5 [Immediate release naltrexone, naltrexone]",elevated levels of serum alpha interferon (IFN-α) vs placebo,"[1]; 1.75 mg nightly at bedtime, 3-month double-blind period, p<0.01",significant drop
same,survival of patients who did not show a decline in IFN-α,[1]; 2 of the 15,13%
same,mean IFN-α level after treatment,"[1]; 23 patients with decline, from mean 144.9 IU. over a 12-month period",11.0 IU.
same,survival of patients who showed a decline in IFN-α,"[1]; Nineteen of the 23, p<0.01",83%
same,side effects,[1]; during the conduct of the trial,No side effects were noted
same,T-cytotoxic-suppressor (CD4−CD8+),[2],significant reduction
same,T-helper-inducers (CD4+CD8−),[2],significant increase
same,"Viral load, person, Hepatitis C & stage 4 cirrhosis","[3]; 4.5 mg, by August of 2011",8.3 million
same,"HCV viral load, person",[3]; May 2010,11.400
same,"ultrasound and liver enzymes, person, Hepatitis C",[3]; all other medication stopped,"No fatty liver, Liver enzymes dropped to normal"
same,"HCV viral load, person","[3]; started February of 2009, May 2009, from over a million in January 2009","49,000"
same,safety and tolerability,[4]; 0.1 mg/kg orally,well tolerated without any serious adverse events
same,patients improved with mild disease activity (decrease in PCDAI score by at least 10 points),[4]; [15],67%
same,patients in remission (PCDAI score≤10),[4]; [15],Twenty-five
same,Systemic and social quality of life (Impact III),[4]; P=0.035,improved
same,CDAI scores,"[5]; 4.5 mg/day by mouth each evening, 12 weeks, baseline mean 356+/−27, P=0.01",decreased significantly
same,laboratory abnormalities,"[5]; 4.5 mg/day, 12 weeks",No laboratory abnormalities were noted
same,patients with response to therapy,"[5]; 4.5 mg/day, 12 weeks",Eighty-nine
same,patients achieving remission,"[5]; 4.5 mg/day, 12 weeks, P<0.001",67%
same,CDAI scores after end of therapy,[5]; 4 weeks after completing therapy,remained lower than baseline
same,"quality of life surveys (IBDQ, SF-36)",[5]; compared with baseline,Improvement was recorded in both quality of life surveys
same,subjects with at least a 70-point decline in CDAI scores,"[6]; 4.5-mg daily oral, placebo 40%, p=0.009",Eighty-eight
same,subjects achieving remission with a CDEIS score<6,"[6]; after 12 weeks, placebo 8%",33%
same,subjects with endoscopic response (5-point decline in CDEIS),"[6]; after 12 weeks, placebo 28%, p=0.008",78%
same,side effects,[6]; vs placebo,Fatigue was the only side effect reported that was significantly greater in subjects receiving placebo
same,fatigue or sleep,[7],not improved fatigue or sleep
same,tolerability and side effects,[7],"rated equally tolerable as placebo, and no serious side effects were reported"
same,mood,[7]; P=0.039,improved mood
same,general satisfaction with life,[7]; P=0.045,improved general satisfaction with life
same,participants meeting the criteria for response,"[7]; placebo 11%, P=0.05",Thirty-two
same,"lab work, person, Hashimoto's",[8]; 1.5 mg,Latest lab work was normal in all areas
same,"side effect, person, Hashimoto Thyroiditis",[8]; 3 mg in morning and 1 mg at night,strange dreams
same,"TPO levels, person, Hashimoto's","[8]; 4.5 mg with T3/T4 capsules from August 2011, initial 350",returned to normal
same,"TgAb, person, Hashimoto's","[8]; titrated 1.5, 3, 4.5 mg, from 77",< 1
same,"outbreaks, person, Shingles",[9],have not had a single outbreak
same,"effect of running out of drug, person, myasthenia gravis",[10],symptoms began to return within 72 hours
same,"medication use, person, psoriatic arthritis","[11]; 4.5 mg at bedtime, within 10 days",able to discontinue all paid medications as well as the Humira
same,"disease course, person, psoriatic arthritis","[11]; 4.5 mg, last six months",the disease has stabilized and the progressive deterioration has stopped
same,"medication use, person, Rheumatoid Arthritis",[12]; 1.5 mg titrated up to 4.5 mg from April of 2009,Successfully discontinued methotrexate March of 2010 and then discontinued plaquenil in October of 2010
same,"fatigue, person, RA",[12]; 4.5 mg at bedtime,Fatigue is gone
same,"Rheumatoid factor, person, RA","[12]; 4.5 mg at bedtime, from 127 in 4 months",66
same,"medication use, person, RA","[12]; 4.5 mg at bedtime, within 7 days",stooped all traditional RA medications
same,"disease course, person, RA","[12]; 4.5 mg with diet, supplements, hormones etc., 7 years later",RA has not advanced
same,"MRSA recurrence, person, systemic lupus",[13]; 1.5 mg,No recurrence of MRSA in 8 years
same,"tolerability, person, systemic lupus",[13]; 1.5 mg starting dose,unable to take it due to insomnia and pruritis
same,"mobility, person, Systemic Lupus","[13]; 3 mg from March 2013, within three weeks",improved mobility
same,"skin, person, Systemic Lupus","[13]; 3 mg increasing to 4.5 mg, within 4 months",skin cleared almost 100%
same,"hospital stays, person, Systemic Lupus",[13]; 4.5 mg,no hospital stays since March of 2013
same,"disease status, person, systemic lupus","[13]; liquid form, 0.1 mg increased weekly to 1.5 mg, with supplements, diet","Lupus, in remission"
same,"disease course, person, adenocarcinoma of the pancreas with liver metastases","[14]; 4.5 mg once per day at bedtime with i.v. and oral ALA, selenium, silymarin, diet",comparatively stable disease for more than a 3-year period and an improved quality of life
same,"follow-up status, person, Follicular Lymphoma",[14]; 2007 report,"remains asymptomatic from their disease, 1 year after their last CT/PET imaging"
same,"disease outcome, person, Follicular Lymphoma","[14]; daily in the evening, after 6 months, not compliant with diet, supplement, ALA",clinical and radiological remission
